Experimental data taken from ChEMBL document CHEMBL4052776, “Discovery of 3-morpholino-imidazole[1,5-a]pyrazine BTK inhibitors for rheumatoid arthritis” (Bioorg Med Chem Lett, 2017).

Assays:
Homo sapiens [1] = species on record: Homo sapiens; test: Selectivity ratio of IC50 for BLK (unknown origin) to IC50 for BTK (unknown origin)
[2] = Total clearance in dog plasma at 2 mg/kg; assay type: ADME, organism-based, Canis lupus familiaris
Homo sapiens [3] = species on record: Homo sapiens; test: Selectivity ratio of IC50 for TXK (unknown origin) to IC50 for BTK (unknown origin)
[4] = molecular target: T1, Cytoplasmic tyrosine-protein kinase BMX (Homo sapiens, UniProt P51813); test: Inhibition of BMX (unknown origin)
T1 sequence (P51813 whole entry): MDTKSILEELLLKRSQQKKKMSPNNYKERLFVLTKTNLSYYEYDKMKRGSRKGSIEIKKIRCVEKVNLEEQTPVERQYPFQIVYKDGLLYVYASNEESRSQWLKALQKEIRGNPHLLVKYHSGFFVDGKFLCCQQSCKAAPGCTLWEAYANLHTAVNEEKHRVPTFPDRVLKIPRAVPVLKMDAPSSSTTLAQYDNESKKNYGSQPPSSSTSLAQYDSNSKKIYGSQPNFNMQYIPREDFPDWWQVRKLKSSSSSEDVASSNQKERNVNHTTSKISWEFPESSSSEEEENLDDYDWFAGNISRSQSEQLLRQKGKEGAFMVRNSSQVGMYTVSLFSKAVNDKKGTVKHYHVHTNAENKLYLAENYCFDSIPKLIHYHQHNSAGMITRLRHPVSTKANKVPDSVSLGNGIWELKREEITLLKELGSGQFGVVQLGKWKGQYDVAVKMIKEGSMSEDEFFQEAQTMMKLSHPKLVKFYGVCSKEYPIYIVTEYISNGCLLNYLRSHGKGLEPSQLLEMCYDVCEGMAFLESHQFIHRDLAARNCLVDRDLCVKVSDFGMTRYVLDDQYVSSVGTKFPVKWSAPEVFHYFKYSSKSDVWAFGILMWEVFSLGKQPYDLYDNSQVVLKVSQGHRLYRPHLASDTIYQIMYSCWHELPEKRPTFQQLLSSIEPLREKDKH

[5] = molecular target: Tyrosine-protein kinase Lck (Homo sapiens, UniProt P06239); test: Inhibition of LCK (unknown origin)
Sequence of Tyrosine-protein kinase Lck (P06239 whole entry): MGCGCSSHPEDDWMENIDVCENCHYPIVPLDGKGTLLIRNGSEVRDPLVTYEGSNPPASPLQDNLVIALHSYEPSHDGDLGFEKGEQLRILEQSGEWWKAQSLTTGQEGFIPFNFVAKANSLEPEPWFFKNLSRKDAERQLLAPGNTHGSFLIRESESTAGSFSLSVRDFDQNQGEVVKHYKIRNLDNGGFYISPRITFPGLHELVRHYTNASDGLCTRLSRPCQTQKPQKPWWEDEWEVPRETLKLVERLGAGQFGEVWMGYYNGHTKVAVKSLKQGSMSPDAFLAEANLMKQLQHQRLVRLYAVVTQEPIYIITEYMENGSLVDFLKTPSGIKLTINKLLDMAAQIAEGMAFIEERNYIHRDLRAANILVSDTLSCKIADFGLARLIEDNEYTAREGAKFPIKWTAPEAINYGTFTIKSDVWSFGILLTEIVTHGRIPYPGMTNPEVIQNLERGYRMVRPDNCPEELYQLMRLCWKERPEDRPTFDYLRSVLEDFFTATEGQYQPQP

[6] = molecular target: Tyrosine-protein kinase Lyn (Homo sapiens, UniProt P07948); test: Inhibition of LYNB (unknown origin)
Sequence of Tyrosine-protein kinase Lyn (P07948 whole entry): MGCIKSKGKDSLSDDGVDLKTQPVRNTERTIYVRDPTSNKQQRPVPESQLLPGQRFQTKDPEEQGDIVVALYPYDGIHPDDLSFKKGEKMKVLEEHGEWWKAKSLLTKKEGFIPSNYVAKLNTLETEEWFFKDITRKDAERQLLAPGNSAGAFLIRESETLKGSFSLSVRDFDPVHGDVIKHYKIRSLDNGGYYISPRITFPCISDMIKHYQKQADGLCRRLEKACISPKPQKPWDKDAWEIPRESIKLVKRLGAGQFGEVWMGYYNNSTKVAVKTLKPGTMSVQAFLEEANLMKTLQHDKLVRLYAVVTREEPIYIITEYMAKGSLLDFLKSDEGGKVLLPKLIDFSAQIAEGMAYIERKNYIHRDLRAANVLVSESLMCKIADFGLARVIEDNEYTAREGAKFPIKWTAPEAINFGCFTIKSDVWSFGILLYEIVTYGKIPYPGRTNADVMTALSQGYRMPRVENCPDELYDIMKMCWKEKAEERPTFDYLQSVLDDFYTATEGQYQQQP

Homo sapiens [7] = species on record: Homo sapiens; test: Selectivity ratio of IC50 for LCK (unknown origin) to IC50 for BTK (unknown origin)
Homo sapiens [8] = species on record: Homo sapiens; test: Selectivity ratio of IC50 for PTK6 (unknown origin) to IC50 for BTK (unknown origin)
Homo sapiens [9] = species on record: Homo sapiens; test: Selectivity ratio of IC50 for YES1 (unknown origin) to IC50 for BTK (unknown origin)
[10] = molecular target: Tyrosine-protein kinase FRK (Homo sapiens, UniProt P42685); test: Inhibition of FRK (unknown origin)
Sequence of Tyrosine-protein kinase FRK (P42685 whole entry): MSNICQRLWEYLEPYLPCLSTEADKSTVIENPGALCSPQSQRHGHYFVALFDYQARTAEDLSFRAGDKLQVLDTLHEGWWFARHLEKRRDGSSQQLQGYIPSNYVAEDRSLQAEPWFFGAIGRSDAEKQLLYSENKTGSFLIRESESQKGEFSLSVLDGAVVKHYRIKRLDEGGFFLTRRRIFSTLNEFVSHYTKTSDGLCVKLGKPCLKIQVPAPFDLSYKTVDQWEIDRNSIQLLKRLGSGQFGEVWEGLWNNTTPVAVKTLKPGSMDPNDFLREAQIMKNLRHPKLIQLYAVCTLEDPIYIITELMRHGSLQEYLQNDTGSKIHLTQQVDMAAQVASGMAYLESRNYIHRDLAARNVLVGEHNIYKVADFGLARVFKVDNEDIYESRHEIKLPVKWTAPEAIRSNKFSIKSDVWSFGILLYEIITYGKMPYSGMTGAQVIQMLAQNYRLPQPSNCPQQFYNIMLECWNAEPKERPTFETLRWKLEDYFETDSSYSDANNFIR

Homo sapiens [11] = species on record: Homo sapiens; test: Selectivity ratio of IC50 for TEC (unknown origin) to IC50 for BTK (unknown origin)
[12] = molecular target: Proto-oncogene tyrosine-protein kinase Src (Homo sapiens, UniProt P12931); test: Inhibition of SRC (unknown origin)
Sequence of Proto-oncogene tyrosine-protein kinase Src (P12931 2-536 limits assumed): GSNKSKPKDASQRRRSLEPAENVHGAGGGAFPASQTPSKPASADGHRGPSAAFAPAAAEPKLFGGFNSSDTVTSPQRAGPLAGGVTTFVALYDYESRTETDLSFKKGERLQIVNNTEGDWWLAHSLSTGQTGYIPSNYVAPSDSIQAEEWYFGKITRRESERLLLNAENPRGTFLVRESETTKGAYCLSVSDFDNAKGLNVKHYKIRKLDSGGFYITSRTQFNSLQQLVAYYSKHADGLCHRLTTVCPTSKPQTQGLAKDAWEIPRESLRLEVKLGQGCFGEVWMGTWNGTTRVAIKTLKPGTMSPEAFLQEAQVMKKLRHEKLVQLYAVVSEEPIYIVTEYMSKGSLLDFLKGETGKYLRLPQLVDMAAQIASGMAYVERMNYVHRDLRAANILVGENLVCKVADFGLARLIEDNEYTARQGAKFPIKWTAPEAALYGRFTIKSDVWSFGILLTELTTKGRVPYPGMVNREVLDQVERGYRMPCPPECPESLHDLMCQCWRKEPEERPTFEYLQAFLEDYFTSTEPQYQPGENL

[13] = molecular target: Tyrosine-protein kinase Srms (Homo sapiens, UniProt Q9H3Y6); test: Inhibition of SRMS (unknown origin)
Sequence of Tyrosine-protein kinase Srms (Q9H3Y6 whole entry): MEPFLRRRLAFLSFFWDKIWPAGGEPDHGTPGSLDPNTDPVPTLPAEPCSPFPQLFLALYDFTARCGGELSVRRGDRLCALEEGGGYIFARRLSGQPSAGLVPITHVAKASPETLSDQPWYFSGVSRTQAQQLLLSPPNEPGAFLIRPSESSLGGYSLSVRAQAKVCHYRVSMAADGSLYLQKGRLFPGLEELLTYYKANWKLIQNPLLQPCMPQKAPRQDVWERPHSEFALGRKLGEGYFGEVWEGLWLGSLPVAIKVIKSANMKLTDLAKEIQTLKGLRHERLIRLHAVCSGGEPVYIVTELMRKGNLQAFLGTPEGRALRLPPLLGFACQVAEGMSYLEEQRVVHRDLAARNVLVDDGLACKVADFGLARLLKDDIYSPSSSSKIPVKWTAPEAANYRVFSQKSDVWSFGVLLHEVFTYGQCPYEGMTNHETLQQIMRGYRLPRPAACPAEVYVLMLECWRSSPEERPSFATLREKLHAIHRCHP

[14] = molecular target: Tyrosine-protein kinase Fyn (Homo sapiens, UniProt P06241); test: Inhibition of FYN (unknown origin)
Sequence of Tyrosine-protein kinase Fyn (P06241 whole entry): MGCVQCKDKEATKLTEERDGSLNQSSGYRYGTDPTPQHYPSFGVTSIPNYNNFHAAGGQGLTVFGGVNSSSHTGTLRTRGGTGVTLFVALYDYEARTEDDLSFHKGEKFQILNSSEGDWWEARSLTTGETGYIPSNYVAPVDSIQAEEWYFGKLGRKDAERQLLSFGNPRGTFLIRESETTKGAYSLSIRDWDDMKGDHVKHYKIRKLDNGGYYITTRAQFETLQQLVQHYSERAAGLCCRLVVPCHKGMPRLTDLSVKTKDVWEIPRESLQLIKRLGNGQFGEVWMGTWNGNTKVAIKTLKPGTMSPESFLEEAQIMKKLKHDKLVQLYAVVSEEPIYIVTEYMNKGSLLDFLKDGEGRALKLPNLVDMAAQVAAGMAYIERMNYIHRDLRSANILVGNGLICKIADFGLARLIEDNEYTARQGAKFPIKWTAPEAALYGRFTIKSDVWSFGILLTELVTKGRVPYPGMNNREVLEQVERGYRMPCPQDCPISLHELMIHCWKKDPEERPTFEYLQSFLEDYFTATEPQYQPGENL

[15] = Half life in dog at 2 mg/kg; assay type: ADME, organism-based, Canis lupus familiaris; details: in vivo
[16] = molecular target: Tyrosine-protein kinase Fgr (Homo sapiens, UniProt P09769); test: Inhibition of FGR (unknown origin)
Sequence of Tyrosine-protein kinase Fgr (P09769 whole entry): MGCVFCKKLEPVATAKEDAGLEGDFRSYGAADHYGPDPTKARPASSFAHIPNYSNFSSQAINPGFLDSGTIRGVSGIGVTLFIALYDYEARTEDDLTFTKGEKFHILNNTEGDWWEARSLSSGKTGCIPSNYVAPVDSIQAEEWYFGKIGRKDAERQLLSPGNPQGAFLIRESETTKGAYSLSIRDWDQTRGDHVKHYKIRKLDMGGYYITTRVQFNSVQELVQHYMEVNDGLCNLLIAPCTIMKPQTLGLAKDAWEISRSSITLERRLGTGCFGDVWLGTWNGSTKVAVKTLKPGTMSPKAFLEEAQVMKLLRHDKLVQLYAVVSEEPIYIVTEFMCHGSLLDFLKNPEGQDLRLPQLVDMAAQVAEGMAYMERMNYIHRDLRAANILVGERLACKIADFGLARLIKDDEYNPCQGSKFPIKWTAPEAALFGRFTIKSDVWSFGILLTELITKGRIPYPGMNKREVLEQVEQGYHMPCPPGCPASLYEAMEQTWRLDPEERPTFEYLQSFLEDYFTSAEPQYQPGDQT

Homo sapiens [17] = species on record: Homo sapiens; test: Selectivity ratio of IC50 for LYNB (unknown origin) to IC50 for BTK (unknown origin)
[18] = molecular target: T2, Tyrosine-protein kinase TXK (Homo sapiens, UniProt P42681); test: Inhibition of TXK (unknown origin)
T2 sequence (P42681 whole entry): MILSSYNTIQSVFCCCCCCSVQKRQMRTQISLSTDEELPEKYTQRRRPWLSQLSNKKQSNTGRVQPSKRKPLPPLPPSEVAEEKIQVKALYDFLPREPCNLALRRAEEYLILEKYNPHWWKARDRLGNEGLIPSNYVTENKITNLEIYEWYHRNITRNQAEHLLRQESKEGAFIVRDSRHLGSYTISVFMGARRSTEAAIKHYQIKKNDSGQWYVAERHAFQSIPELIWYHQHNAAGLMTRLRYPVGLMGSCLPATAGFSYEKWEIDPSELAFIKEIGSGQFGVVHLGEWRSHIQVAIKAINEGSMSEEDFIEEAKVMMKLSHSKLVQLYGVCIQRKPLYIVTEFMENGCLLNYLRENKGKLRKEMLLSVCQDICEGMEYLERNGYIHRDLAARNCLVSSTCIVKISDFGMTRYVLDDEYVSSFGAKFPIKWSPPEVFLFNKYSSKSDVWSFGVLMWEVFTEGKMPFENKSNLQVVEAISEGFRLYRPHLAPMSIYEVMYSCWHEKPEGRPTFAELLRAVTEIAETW

[19] = molecular target: Protein-tyrosine kinase 6 (Homo sapiens, UniProt Q13882); test: Inhibition of PTK6 (unknown origin)
[20] = molecular target: Tyrosine-protein kinase Blk (Homo sapiens, UniProt P51451); test: Inhibition of BLK (unknown origin)
Sequence of Tyrosine-protein kinase Blk (P51451 whole entry): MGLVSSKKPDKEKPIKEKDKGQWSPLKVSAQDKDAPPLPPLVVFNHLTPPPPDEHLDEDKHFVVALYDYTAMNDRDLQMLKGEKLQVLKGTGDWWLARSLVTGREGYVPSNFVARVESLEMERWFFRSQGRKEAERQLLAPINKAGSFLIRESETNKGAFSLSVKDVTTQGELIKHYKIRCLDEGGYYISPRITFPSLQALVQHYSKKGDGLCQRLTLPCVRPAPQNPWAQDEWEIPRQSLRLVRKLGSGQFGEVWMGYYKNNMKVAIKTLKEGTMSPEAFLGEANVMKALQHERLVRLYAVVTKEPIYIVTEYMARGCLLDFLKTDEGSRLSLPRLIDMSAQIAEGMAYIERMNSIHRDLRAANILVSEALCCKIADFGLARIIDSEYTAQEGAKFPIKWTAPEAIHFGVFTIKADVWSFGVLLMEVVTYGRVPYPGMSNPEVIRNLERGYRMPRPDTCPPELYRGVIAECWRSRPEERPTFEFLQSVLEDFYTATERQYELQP

Homo sapiens [21] = species on record: Homo sapiens; test: Selectivity ratio of IC50 for ERBB4 (unknown origin) to IC50 for BTK (unknown origin)
[22] = molecular target: Voltage-gated inwardly rectifying potassium channel KCNH2 (Homo sapiens, UniProt Q12809); test: Inhibition of human ERG by [35S]-MK499 displacement or iKr channel assay
[23] = Oral bioavailability in dog at 2 mg/kg; assay type: ADME, organism-based, Canis lupus familiaris; details: in vivo
Homo sapiens [24] = species on record: Homo sapiens; test: Selectivity ratio of IC50 for CSK (unknown origin) to IC50 for BTK (unknown origin)
Homo sapiens [25] = species on record: Homo sapiens; test: Selectivity ratio of IC50 for FGR (unknown origin) to IC50 for BTK (unknown origin)
[26] = molecular target: Tyrosine-protein kinase Yes (Homo sapiens, UniProt P07947); test: Inhibition of YES1 (unknown origin)
Sequence of Tyrosine-protein kinase Yes (P07947 whole entry): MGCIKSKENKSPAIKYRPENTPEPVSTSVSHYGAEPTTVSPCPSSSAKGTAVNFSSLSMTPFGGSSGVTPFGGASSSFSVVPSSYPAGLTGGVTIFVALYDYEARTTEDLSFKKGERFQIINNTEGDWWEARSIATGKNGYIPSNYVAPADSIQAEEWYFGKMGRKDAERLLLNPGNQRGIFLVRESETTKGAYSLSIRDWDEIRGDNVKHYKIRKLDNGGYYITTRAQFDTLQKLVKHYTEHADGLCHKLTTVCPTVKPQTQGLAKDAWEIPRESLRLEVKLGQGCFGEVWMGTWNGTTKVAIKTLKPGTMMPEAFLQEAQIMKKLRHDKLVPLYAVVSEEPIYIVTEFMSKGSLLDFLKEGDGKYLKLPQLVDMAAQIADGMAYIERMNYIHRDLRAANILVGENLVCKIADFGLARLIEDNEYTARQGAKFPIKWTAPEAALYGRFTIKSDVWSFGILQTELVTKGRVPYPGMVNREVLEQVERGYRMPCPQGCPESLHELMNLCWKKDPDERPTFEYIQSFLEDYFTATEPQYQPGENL

[27] = Half life in rat at 10 mg/kg; assay type: ADME, organism-based; details: in vivo

`CC(C)C(=O)N1CCO[C@@H](c2nc(-c3ccc(C(=O)Nc4cc(C(F)(F)F)ccn4)cc3F)c3c(N)nccn23)C1` showed a Ratio IC50 (Homo sapiens [1]) of 636, a clearance [2] of 4.8 mL/min/kg and a Ratio IC50 (Homo sapiens [3]) of 1060. The IC50 [4] was 703 nM, the IC50 [5] was 100 nM and the IC50 [6] was 1050 nM. The Ratio IC50 (Homo sapiens [7]) was 227, the Ratio IC50 (Homo sapiens [8]) was 393 and the Ratio IC50 (Homo sapiens [9]) was 605. It also gave an IC50 [10] of 706 nM, a Ratio IC50 (Homo sapiens [11]) of 973 and an IC50 [12] of 512 nM. The IC50 [13] was 103 nM, the IC50 [14] was 1900 nM and the half-life [15] was 3.9 h. For the same molecule, the IC50 [16] was 268 nM, the Ratio IC50 (Homo sapiens [17]) was 2380 and the IC50 [18] was 464 nM. The IC50 [19] was 173 nM, the IC50 [20] was 280 nM and the Ratio IC50 (Homo sapiens [21]) was 1170. The IC50 [22] was 15000 nM, the bioavailability [23] was 89% and the Ratio IC50 (Homo sapiens [24]) was 4880. For the same molecule, the Ratio IC50 (Homo sapiens [25]) was 610, the IC50 [26] was 266 nM and the half-life [27] was 2.3 h.
